From the supplement of paper PMC10307832

How the values were obtained:
Experiment in all cases: relative viability (nuclei count vs DMSO), 5 days (fraction); higher = more cells survive
GSK126 + Pictilisib = compound: CC[C@H](C)N1C=C(C2=C(C=C(C=C21)C3=CN=C(C=C3)N4CCNCC4)C(=O)NCC5=C(C=C(NC5=O)C)C)C [GSK126] + CS(=O)(=O)N1CCN(Cc2cc3nc(-c4cccc5[nH]ncc45)nc(N4CCOCC4)c3s2)CC1 [Pictilisib] (partner 1 µM)
Outline: (§1)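 Lung cancer cell lines were pin-tool dosed in 1536-well plates on the day after seeding, with either a lone drug or a fixed anchor-drug dose plus five library-drug doses (not always all listed) in √10 steps. Nuclei were counted on 4× images after 5 days. Relative viability is the ratio of treated-well to vehicle-well nuclei counts, with each value a median of duplicate plates.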

GSK126 + Linsitinib = compound: CC[C@H](C)N1C=C(C2=C(C=C(C=C21)C3=CN=C(C=C3)N4CCNCC4)C(=O)NCC5=C(C=C(NC5=O)C)C)C [GSK126] + C[C@]1(O)C[C@@H](c2nc(-c3ccc4ccc(-c5ccccc5)nc4c3)c3c(N)nccn32)C1 [Linsitinib] (partner 1 µM)
Outline: as §1

MLN4924 + Palbociclib = compound: NS(=O)(=O)OC[C@@H]1C[C@@H](n2ccc3c(N[C@H]4CCc5ccccc54)ncnc32)C[C@@H]1O [MLN4924] + CC(=O)c1c(C)c2cnc(Nc3ccc(N4CCNCC4)cn3)nc2n(C2CCCC2)c1=O [Palbociclib] (partner 0.5 µM)
Outline: as §1

MLN4924 + Pemetrexed = compound: NS(=O)(=O)OC[C@@H]1C[C@@H](n2ccc3c(N[C@H]4CCc5ccccc54)ncnc32)C[C@@H]1O [MLN4924] + Nc1nc2[nH]cc(CCc3ccc(C(=O)N[C@@H](CCC(=O)O)C(=O)O)cc3)c2c(=O)[nH]1 [Pemetrexed] (partner 0.2 µM)
Outline: as §1

Cell Line	relative viability (GSK126 + Pictilisib; first compound 0.08 µM)	relative viability (GSK126 + Pictilisib; first compound 0.253 µM)	relative viability (GSK126 + Pictilisib; first compound 0.8 µM)	relative viability (GSK126 + Pictilisib; first compound 2.53 µM)	relative viability (GSK126 + Pictilisib; first compound 8 µM)	relative viability (GSK126 + Linsitinib; first compound 0.08 µM)	relative viability (GSK126 + Linsitinib; first compound 0.253 µM)	relative viability (GSK126 + Linsitinib; first compound 0.8 µM)	relative viability (GSK126 + Linsitinib; first compound 2.53 µM)	relative viability (GSK126 + Linsitinib; first compound 8 µM)	relative viability (MLN4924 + Palbociclib; first compound 0.04 µM)	relative viability (MLN4924 + Palbociclib; first compound 0.1265 µM)	relative viability (MLN4924 + Palbociclib; first compound 0.4 µM)	relative viability (MLN4924 + Palbociclib; first compound 1.265 µM)	relative viability (MLN4924 + Palbociclib; first compound 4 µM)	relative viability (MLN4924 + Pemetrexed; first compound 0.04 µM)	relative viability (MLN4924 + Pemetrexed; first compound 0.1265 µM)	relative viability (MLN4924 + Pemetrexed; first compound 0.4 µM)	relative viability (MLN4924 + Pemetrexed; first compound 1.265 µM)	relative viability (MLN4924 + Pemetrexed; first compound 4 µM)
NCI-H1993	0.841	0.795	0.828	0.902	0.782	0.827	0.713	0.728	0.752	0.734	0.792	0.428	0.422	0.362	0.377	0.592	0.471	0.421	0.441	0.382
NCI-H1944	0.356	0.349	0.367	0.36	0.391	1.48	1.18	1.15	1.22	1.33	0.374	0.371	0.366	0.197	0.178	0.602	0.56	0.405	0.186	0.157
SK-LU-1	0.657	0.699	0.587	0.667	0.694	1.31	1.07	1.11	1.44	1.25	0.467	0.43	0.253	0.195	0.202	0.94	0.829	0.26	0.194	0.212
NCI-H1915	0.937	0.874	1.04	0.941	0.927	1.2	1.08	1.14	1.17	1.16	0.501	0.396	0.389	0.161	0.121	0.625	0.66	0.479	0.144	0.176
NCI-H650	1.02	0.781	0.884	0.884	0.801	1.11	0.789	0.934	0.974	1.13	0.307	0.182	0.159	0.136	0.166	0.921	0.471	0.213	0.15	0.165
SW 1573	0.568	0.485	0.528	0.486	0.559	0.813	0.761	0.743	0.816	0.746	0.375	0.306	0.155	0.0802	0.0896	0.899	0.901	0.249	0.0884	0.0765
NCI-H1563	0.616	0.715	0.695	0.648	0.551	1.2	1.11	1.16	1.12	1.26						1.08	1.48	0.649	0.495	0.405
NCI-H1703	0.247	0.263	0.235	0.262	0.231	1.25	0.708	0.852	0.82	1.5										
NCI-H1648											0.256	0.231	0.371	0.259	0.302	0.748	0.76	0.559	0.321	0.359
